Measurements taken from patent US10654814B2, “Bicyclic hydroxamic acids useful as inhibitors of mammalian histone deacetylase activity” (KANCERA AB, priority 2015, dated 2020).
Where two headings read alike, the source gives them in different places.

Experiments:
[1] = test system: MDA-MB-231 (breast adenocarcinoma) cells; test: CellTiter-Blue cell viability assay, MDA-MB-231; type: cell-based; settings: Homo sapiens, 72 hours of treatment
Protocol: (§1) Method for Measurement of Cell Viability
(§2) The CellTiter-Blue® Cell Viability Assay (Promega) provides a homogeneous, fluorometric method for estimating the number of viable cells present in multi-well plates. The assay uses the indicator dye resazurin to measure the metabolic capacity of cells. Viable cells retain the ability to reduce resazurin into resorufin, which is highly fluorescent.
(§3) Stock solutions (10 mM in DMSO) of compounds were serially diluted 1:2 in 11 concentrations. 50 nL/well (10 mM compound stock in DMSO) was acoustically dispensed in 384-well assay plates with an acoustic dispenser (EDC Biosystems ATS-100AV). Final starting concentration in the assay was 20 μM (0.2% DMSO) for test compounds. The following cell-lines (and origin) have been primarily used: PaCa2 (pancreatic), U266 (multiple myeloma), AMO-1 (plasmacytoma), and MDA-MB-231 (breast adenocarcinoma). PBMCs (peripheral blood mononuclear cells) from healthy donors were used as control cells. Cells were seeded in assay plates (384-well black/clear, Greiner #781091) pre-dispensed with compounds, 25 μL/well, and cultured for 72 hours. After 72 hours, Celltiter Blue reagent (Promega # G8081) was diluted 1:10 with PBS and then added to wells (5 μL/well). The plates were incubated for 2 hours following addition of reagent. The plates were read in an EnVision fluorescence reader (PerkinElmer) with Ex544 nm/Em590 nm. Results were calculated as % cell viability compared to background (cells treated with 0.2% DMSO).

HDAC2 = HDAC2 (Homo sapiens (Human), UniProt Q92769); test: HDAC2 in vitro enzymatic assay (fluorescence); type: biochemical; settings: Table 4 selectivity profiling
Sequence of HDAC2 (Q92769 whole entry): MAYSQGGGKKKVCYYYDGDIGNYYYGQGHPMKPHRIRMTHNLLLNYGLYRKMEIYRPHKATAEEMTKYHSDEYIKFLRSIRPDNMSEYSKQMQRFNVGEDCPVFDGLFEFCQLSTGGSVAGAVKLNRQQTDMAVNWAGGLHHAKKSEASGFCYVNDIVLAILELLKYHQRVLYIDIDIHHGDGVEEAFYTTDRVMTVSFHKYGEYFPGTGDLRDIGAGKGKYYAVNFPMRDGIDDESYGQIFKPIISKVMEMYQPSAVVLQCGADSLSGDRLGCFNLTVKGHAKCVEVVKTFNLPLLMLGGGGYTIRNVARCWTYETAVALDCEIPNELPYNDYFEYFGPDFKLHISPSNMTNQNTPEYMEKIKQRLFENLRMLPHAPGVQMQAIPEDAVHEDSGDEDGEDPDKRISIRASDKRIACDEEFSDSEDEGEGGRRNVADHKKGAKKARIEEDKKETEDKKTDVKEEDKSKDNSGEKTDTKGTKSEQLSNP
Protocol: (§4) Biological Tests Method for Measurement of Enzymatic Activity of HDACs Materials & Methods
(§5) All Examples were tested in HDAC1,2,3,6 and 8 in vitro enzymatic assays. The assay principle is well known (Hauser et al. 2009, Bradner et al. 2010) and all necessary reagents like enzymes, substrates, developer and reference compounds are commercially available (see e.g. BPS Biosciences http://www.bpsbioscience.com/). Stock solutions (10 mM in DMSO) of compounds were serially diluted 1:3 in 11 concentrations with a top concentration of 200 μM for HDAC1,2,3 and 2 μM for HDAC6 and HDAC8. The enzymatic reactions were conducted in a mixture containing assay buffer, bovine serum albumin, HDAC substrate, and a test compound. After enzymatic reaction, developer was added and after an additional incubation time, fluorescence intensity was measured at an excitation wavelength of 360 nm and an emission wavelength of 460 nm. All experiments were performed in duplicate.

PaCa2 (pancreatic) cells = test: CellTiter-Blue cell viability assay, PaCa2; type: cell-based; settings: PaCa-2; 72 hours of treatment
Protocol: as §1, §2, §3

[2] = test system: U266 (multiple myeloma) cells; test: CellTiter-Blue cell viability assay, U266; type: cell-based; settings: Homo sapiens, U-266; 72 hours of treatment
Protocol: as §1, §2, §3

HDAC3 = HDAC3 (Homo sapiens (Human), UniProt O15379); test: HDAC3 in vitro enzymatic assay (fluorescence); type: biochemical; settings: Table 4 selectivity profiling
Sequence of HDAC3 (O15379 whole entry): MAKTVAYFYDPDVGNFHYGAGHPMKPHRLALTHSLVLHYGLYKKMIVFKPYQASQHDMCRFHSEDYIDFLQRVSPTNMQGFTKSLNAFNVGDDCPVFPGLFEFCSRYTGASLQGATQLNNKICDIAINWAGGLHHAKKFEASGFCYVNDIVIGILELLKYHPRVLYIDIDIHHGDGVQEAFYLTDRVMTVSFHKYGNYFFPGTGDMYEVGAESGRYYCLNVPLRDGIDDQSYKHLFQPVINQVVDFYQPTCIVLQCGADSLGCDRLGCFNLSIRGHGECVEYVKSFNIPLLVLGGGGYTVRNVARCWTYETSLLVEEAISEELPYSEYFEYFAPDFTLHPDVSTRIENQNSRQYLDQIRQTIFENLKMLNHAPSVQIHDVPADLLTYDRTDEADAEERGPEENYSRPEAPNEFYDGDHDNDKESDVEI
Sequence of HDAC3 (Q9Y618 395-489 partner): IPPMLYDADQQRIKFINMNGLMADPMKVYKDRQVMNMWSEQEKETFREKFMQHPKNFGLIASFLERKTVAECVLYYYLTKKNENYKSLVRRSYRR
Protocol: as §4, §5

[3] = test system: PBMCs (peripheral blood mononuclear cells) from healthy donors; test: CellTiter-Blue cell viability assay, healthy PBMC; type: cell-based; settings: 72 hours of treatment
Protocol: as §1, §2, §3

HDAC1 = HDAC1 (Homo sapiens (Human), UniProt Q13547); test: HDAC1 in vitro enzymatic assay (fluorescence); type: biochemical; settings: Table 4 selectivity profiling
Sequence of HDAC1 (Q13547 whole entry): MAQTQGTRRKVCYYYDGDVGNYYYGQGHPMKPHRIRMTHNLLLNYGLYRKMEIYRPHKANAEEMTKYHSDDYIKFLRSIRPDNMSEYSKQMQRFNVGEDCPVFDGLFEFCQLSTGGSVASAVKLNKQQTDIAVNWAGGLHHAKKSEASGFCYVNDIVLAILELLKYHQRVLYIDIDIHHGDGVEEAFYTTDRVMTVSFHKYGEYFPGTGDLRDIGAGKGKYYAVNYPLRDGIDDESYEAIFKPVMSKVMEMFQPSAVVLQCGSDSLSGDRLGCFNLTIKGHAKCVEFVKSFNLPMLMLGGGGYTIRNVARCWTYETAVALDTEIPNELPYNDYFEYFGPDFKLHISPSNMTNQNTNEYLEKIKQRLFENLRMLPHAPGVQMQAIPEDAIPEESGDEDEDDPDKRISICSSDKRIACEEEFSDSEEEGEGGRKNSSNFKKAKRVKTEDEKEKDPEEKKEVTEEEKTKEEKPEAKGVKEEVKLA
Protocol: as §4, §5

HDAC6 = HDAC6 (Homo sapiens (Human), UniProt Q9UBN7); test: HDAC6 in vitro enzymatic assay (fluorescence); type: biochemical
Sequence of HDAC6 (Q9UBN7 whole entry): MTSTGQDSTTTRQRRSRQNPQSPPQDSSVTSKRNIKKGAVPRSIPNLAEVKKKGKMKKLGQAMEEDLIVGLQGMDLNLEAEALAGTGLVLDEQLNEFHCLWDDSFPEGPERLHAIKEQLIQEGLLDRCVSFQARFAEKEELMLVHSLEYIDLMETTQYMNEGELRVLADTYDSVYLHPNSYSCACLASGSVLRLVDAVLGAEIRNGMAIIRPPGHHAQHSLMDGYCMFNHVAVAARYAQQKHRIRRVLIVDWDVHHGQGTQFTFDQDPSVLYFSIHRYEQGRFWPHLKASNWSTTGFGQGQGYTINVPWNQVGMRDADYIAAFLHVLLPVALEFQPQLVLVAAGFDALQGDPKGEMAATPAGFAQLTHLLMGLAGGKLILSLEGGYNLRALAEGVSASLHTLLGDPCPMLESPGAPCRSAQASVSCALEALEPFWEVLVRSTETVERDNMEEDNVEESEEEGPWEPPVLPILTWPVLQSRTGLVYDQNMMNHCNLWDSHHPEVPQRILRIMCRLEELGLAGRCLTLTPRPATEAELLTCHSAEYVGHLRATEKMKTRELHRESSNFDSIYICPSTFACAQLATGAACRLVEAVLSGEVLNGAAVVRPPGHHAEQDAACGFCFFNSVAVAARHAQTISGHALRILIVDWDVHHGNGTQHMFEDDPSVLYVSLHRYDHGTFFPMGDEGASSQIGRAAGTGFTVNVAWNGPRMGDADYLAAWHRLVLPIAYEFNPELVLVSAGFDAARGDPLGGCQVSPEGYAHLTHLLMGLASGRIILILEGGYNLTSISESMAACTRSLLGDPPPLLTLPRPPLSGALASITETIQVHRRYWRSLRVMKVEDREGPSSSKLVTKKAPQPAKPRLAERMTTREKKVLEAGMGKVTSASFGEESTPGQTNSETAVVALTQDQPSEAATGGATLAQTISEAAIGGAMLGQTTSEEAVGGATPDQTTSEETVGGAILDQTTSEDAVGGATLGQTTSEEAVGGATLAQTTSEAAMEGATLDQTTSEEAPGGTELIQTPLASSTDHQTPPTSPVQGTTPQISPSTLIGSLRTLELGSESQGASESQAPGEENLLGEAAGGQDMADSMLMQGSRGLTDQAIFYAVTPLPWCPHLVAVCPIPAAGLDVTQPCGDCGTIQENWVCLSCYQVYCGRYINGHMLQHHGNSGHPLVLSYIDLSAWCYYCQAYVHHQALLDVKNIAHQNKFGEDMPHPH
Procedure, shortened: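 Fluorogenic HDAC substrate reactions contained assay buffer, BSA and compound, followed by developer. Fluorescence was read at ex 360/em 460 nm. Compounds were tested as 11-point 1:3 dilutions from a top of 200 μM for HDAC1, 2 and 3, and from 2 μM for HDAC6, in duplicate.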

HDAC8 = HDAC8 (Homo sapiens (Human), UniProt Q9BY41); test: HDAC8 in vitro enzymatic assay (fluorescence); type: biochemical; settings: Table 4 selectivity profiling
Sequence of HDAC8 (Q9BY41 whole entry): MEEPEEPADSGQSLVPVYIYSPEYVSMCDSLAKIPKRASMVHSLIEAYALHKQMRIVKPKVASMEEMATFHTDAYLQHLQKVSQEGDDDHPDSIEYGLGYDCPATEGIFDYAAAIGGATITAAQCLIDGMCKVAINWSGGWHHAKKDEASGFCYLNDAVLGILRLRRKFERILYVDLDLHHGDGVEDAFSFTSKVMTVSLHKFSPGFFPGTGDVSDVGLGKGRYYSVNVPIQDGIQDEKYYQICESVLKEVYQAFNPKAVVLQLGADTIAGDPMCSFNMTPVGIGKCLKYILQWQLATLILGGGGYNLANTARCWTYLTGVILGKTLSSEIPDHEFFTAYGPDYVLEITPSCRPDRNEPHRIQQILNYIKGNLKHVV
Protocol: as §4, §5

[4] = test system: AMO-1 (plasmacytoma) cells; test: CellTiter-Blue cell viability assay, AMO-1; type: cell-based; settings: Homo sapiens, AMO1; 72 hours of treatment
Protocol: as §1, §2, §3

[5] = Table 3, read-out: IC50 (nM) for inhibition of HDAC6
[6] = Table 4 selectivity profiling, read-out: IC50 (nM) HDAC6

SMILES | IC50 [1] [µM] | IC50 (HDAC2) [nM] | IC50 [2] [µM] | IC50 (HDAC3) [nM] | IC50 (HDAC1) [nM] | IC50 (HDAC6; [5]) [nM] | IC50 (HDAC6; [6]) [nM] | IC50 (HDAC8) [nM] | IC50 [4] [µM] | IC50 (PaCa2 (pancreatic) cells) [µM] | IC50 [3] [µM]
O=C(NO)c1ccc2oc(-c3ccc(OC(F)(F)F)cc3)nc2c1 [Example 9, N-hydroxy-2-[4-(trifluoromethoxy)phenyl]-1,3-benzoxazole-5-carboxamide] | 1.4 | 76000 | 0.91 | 1700 | 6000 | – | 38 | 800 | 0.9 | 1.9 | > 20
O=C(NO)c1ccc2oc(-c3ccc(-c4ccccc4F)cc3)nc2c1 [Example 21, 2-(2′-Fluorobiphenyl-4-yl)-N-hydroxy-1,3-benzoxazole-5-carboxamide] | 1.1 | > 200000 | 0.94 | 1800 | 5600 | 28 | 28 | 700 | 0.64 | 1.2 | > 20
CC(C)c1ccc(-c2cc3ccc(C(=O)NO)cc3[nH]2)cc1 [Example 59, N-Hydroxy-2-[4-(1-methylethyl)phenyl]-1H-indole-6-carboxamide] | 1.2 | – | 1.7 | – | – | – | – | – | 0.66 | 1.4 | > 20
CC(C)c1ccc(-c2nc3ccc(C(=O)NO)cc3s2)cc1 [Example 61] | 1.8 | – | 1.1 | – | – | – | – | – | 0.81 | 0.9 | > 20
O=C(NO)c1ccc2sc(-c3ccc(OC(F)(F)F)cc3)cc2c1 [Example 102, N-hydroxy-2-[4-(trifluoromethoxy)phenyl]-1-benzothiophene-5-carboxamide] | 0.41 | – | 0.64 | – | – | 70 | – | – | 0.47 | 2.48 | > 20
CC(C)(C)c1ccc(-c2cc3cc(C(=O)NO)ccc3s2)cc1 [Example 103, 2-(4-tert-butylphenyl)-N-hydroxy-1-benzothiophene-5-carboxamide] | 0.6 | – | 0.55 | – | – | – | – | – | 0.49 | 1.46 | > 20
CC(C)Oc1ccc(-c2cc3cc(C(=O)NO)ccc3s2)cc1Cl [Example 107, 2-[3-chloro-4-(1-methylethoxy)phenyl]-N-hydroxy-1-benzothiophene-5-carboxamide] | 0.42 | – | 0.42 | – | – | – | – | – | 0.37 | 1.3 | > 20
CC(C)c1ccc(-c2cc3ccc(C(=O)NO)cc3o2)cc1 [Example 112, N-Hydroxy-2-[4-(1-methylethyl)phenyl]-1-benzofuran-6-carboxamide] | 1.2 | – | 0.58 | – | – | 7 | – | – | 0.46 | 0.89 | > 20
COc1ccc(F)cc1-c1ccc(-c2nc3cc(C(=O)NO)ccc3o2)c(F)c1 [Example 193, 2-(3,5′-difluoro-2′-methoxybiphenyl-4-yl)-N-hydroxy-1,3-benzoxazole-5-carboxamide] | 0.98 | – | 1.2 | – | – | – | – | – | 2.3 | 2.2 | > 20

Further molecules by falling IC50 [1], results first:

IC50 [1] [µM] | IC50 (HDAC2) [nM] | IC50 [2] [µM] | IC50 (HDAC3) [nM] | IC50 (HDAC1) [nM] | IC50 (HDAC6; [5]) [nM] | IC50 (HDAC6; [6]) [nM] | IC50 (HDAC8) [nM] | IC50 [4] [µM] | SMILES | IC50 (PaCa2 (pancreatic) cells) [µM] | IC50 [3] [µM]
3.1 | > 200000 | 0.89 | 820 | > 200000 | – | 3 | > 2000 | 0.62 | COc1ccc(-c2ccc(-c3nc4cc(C(=O)NO)ccc4o3)cc2)cn1 [Example 27, N-hydroxy-2-[4-(6-methoxypyridin-3-yl)phenyl]-1,3-benzoxazole-5-carboxamide] | 0.81 | > 20
1.8 | 9400 | 0.48 | 930 | 1800 | – | 22 | 410 | 0.34 | CC(C)(C)c1ccc(-c2nc3cc(C(=O)NO)ccc3s2)cc1 [Example 77, 2-(4-tert-butylphenyl)-N-hydroxy-1,3-benzothiazole-5-carboxamide] | 1.4 | > 20
1.7 | – | 1.1 | – | – | 5 | – | – | 0.61 | COc1ccncc1-c1ccc(-c2nc3cc(C(=O)NO)ccc3o2)cc1 [Example 26, N-hydroxy-2-[4-(4-methoxypyridin-3-yl)phenyl]-1,3-benzoxazole-5-carboxamide] | 1.1 | > 20
1.2 | – | 0.67 | – | – | – | – | – | 0.67 | CC(C)c1ccc(-c2cc3cc(C(=O)NO)ccc3o2)cc1 [Example 111, N-Hydroxy-2-[4-(1-methylethyl)phenyl]-1-benzofuran-5-carboxamide] | 1.3 | > 20
1.1 | 14000 | 0.42 | 10000 | 26000 | 37 | 14 | 1100 | 0.36 | CC(C)c1ccc(-c2cc3ccc(C(=O)NO)cc3s2)cc1 [Example 88, N-Hydroxy-2-[4-(1-methylethyl)phenyl]-1-benzothiophene-6-carboxamide] | 0.82 | > 20
0.81 | 19000 | 0.49 | 410 | 1100 | 5 | 5 | 1000 | 0.38 | CC(C)(C)c1ccc(-c2nc3cc(C(=O)NO)ccc3o2)cc1 [Example 4, 2-(4-tert-butylphenyl)-N-hydroxy-1,3-benzoxazole-5-carboxamide] | 0.75 | > 20
0.81 | – | 0.58 | – | – | 28 | – | – | 0.5 | O=C(NO)c1ccc2sc(-c3cccc(C(F)(F)F)c3)cc2c1 [Example 90, N-hydroxy-2-[3-(trifluoromethyl)phenyl]-1-benzothiophene-5-carboxamide] | 0.8 | > 20
0.75 | 28000 | 0.62 | 1800 | 5600 | – | 28 | 700 | 0.38 | COc1ncccc1-c1ccc(-c2nc3cc(C(=O)NO)ccc3o2)cc1 [Example 28, N-hydroxy-2-[4-(2-methoxypyridin-3-yl)phenyl]-1,3-benzoxazole-5-carboxamide] | 1 | > 20
0.4 | 5500 | 0.49 | 500 | 900 | 13 | 3 | 28 | 0.41 | CC(C)c1ccc(-c2nc3cc(C(=O)NO)ccc3s2)cc1 [Example 75, N-Hydroxy-2-[4-(1-methylethyl)phenyl]-1,3-benzothiazole-5-carboxamide] | 1.3 | > 20
0.37 | > 200000 | 1.1 | 3500 | 5100 | – | 51 | 200 | 0.68 | CC(C)c1ccc(Nc2nc3cc(C(=O)NO)ccc3o2)cc1 [Example 43, N-hydroxy-2-{[4-(1-methylethyl)phenyl]amino}-1,3-benzoxazole-5-carboxamide] | 1.7 | > 20
